Measured values published in publication PMC10762035, “Molecular basis of human trace amine-associated receptor 1 activation” (Nature Communications, 2024).
Numbering of substitutions follows the chain as printed. Several values for one entry are separate records, joined by “and”; a condition that tells them apart may be missing. Equal entries are not always repeated. Where two headings read alike, the source gives them in different places.

Experiments:
hTA1 I290Y = target: T1, hTA1 I290Y (Homo sapiens, UniProt Q96RJ0, I290Y); assay: GloSensor cAMP accumulation assay, I290Y mutant; format: cell-based; settings: for Normalized Luminescence Counts for Concentration Response Curves: I120Y, log[Agonist], single replicates
T1 construct: expressed in transfected cells; host or cells: HEK293T
T1 sequence (Q96RJ0 1-339 I290Y): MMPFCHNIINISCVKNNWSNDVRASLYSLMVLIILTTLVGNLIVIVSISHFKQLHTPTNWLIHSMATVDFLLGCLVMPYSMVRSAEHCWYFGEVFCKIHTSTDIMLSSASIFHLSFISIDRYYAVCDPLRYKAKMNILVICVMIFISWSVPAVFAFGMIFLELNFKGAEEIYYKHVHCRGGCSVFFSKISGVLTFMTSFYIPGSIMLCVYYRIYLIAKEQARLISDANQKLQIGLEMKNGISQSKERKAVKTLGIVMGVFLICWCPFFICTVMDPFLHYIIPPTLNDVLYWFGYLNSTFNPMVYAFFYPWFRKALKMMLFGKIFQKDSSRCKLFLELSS

hTA1 R83H = target: T2, hTA1 R83H (Homo sapiens, UniProt Q96RJ0, R83H); assay: GloSensor cAMP accumulation assay, R83H mutant; format: cell-based; settings: R83H;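 also: cells transiently co-expressing hTA1 and a cAMP GloSensor, luminescence read 30 min after agonist addition at room temperature, concentration–response fitted by non-linear regression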
T2 construct: expressed in transfected cells; host or cells: HEK293T
T2 sequence (Q96RJ0 1-339 R83H): T1 sequence (Q96RJ0 1-339 I290Y) with R83H, Y290I

hTA1 T194A = target: T3, hTA1 T194A (Homo sapiens, UniProt Q96RJ0, T194A); assay: GloSensor cAMP accumulation assay, T194A mutant
T3 sequence (Q96RJ0 1-339 T194A): T1 sequence (Q96RJ0 1-339 I290Y) with T194A, Y290I

hTA1 = target: T4, hTA1 (Homo sapiens, UniProt Q96RJ0); assay: GloSensor cAMP accumulation assay, concentration response, wild-type hTA1 in transfected HEK293T cells; format: cell-based; settings: for Emax: HEK-293T; for Dose-response curves for asenapine vs endogenous trace amines / Normalized Luminescence Counts for WT hTA1: log[Compound]; for Dose-response curves for asenapine vs endogenous trace amines: replicate values (N=2); for Normalized Luminescence Counts for WT hTA1: replicate wells;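 as to all read-outs here: luminescence read after 30 min compound exposure at room temperature in cells preloaded with D-Luciferin, reflecting Gs-driven cAMP rise, efficacy scaled to the maximal β-PEA response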
T4 construct: expressed in transfected cells; host or cells: HEK293T
T4 sequence (Q96RJ0 1-339): T1 sequence (Q96RJ0 1-339 I290Y) with Y290I

## CN1CC2c3ccccc3Oc3ccc(Cl)cc3C2C1 (centres unmarked) [asenapine]
hTA1 I290Y; M -7
  Normalized Luminescence Counts for Concentration Response Curves: 15.0486 and 28.2836 and 14.433 and 14.2815 and 11.35 and 10.6171 and 4.9397 and 9.4516 and 7.196
hTA1 I290Y; M -7.522
  Normalized Luminescence Counts for Concentration Response Curves: 3.6603 and 8.277 and 2.121 and 8.052 and 3.288 and 0.7233 and -1.828 and 2.684 and 1.556
hTA1 I290Y; M -8
  Normalized Luminescence Counts for Concentration Response Curves: 2.121 and 5.507 and 1.506 and 4.021 and -2.208 and 3.288 and -1.828 and -2.956 and -5.212
hTA1 I290Y; M -8.522
  Normalized Luminescence Counts for Concentration Response Curves: -2.188 and 0.2746 and -1.264 and -1.842 (2×) and -4.04 and -6.34 and -5.212 (2×)
hTA1 I290Y; M -9
  Normalized Luminescence Counts for Concentration Response Curves: -1.572 and -0.6488 and -1.264 and -5.506 and -1.109 and -5.873 and -4.0841 and -5.212 (2×)
hTA1 I290Y; M -9.522
  Normalized Luminescence Counts for Concentration Response Curves: -3.419 and -1.264 and -3.7267 and -3.674 and -1.109 and -6.239 and -5.212 (2×) and -4.0841
hTA1 I290Y; M -10
  Normalized Luminescence Counts for Concentration Response Curves: -2.496 and -2.188 and -2.803 and -2.575 and 2.189 and 2.922 and -4.0841 and -1.828 and -2.956
hTA1 I290Y; M -10.522
  Normalized Luminescence Counts for Concentration Response Curves: -1.88 (2×) and -1.264 and -6.605 (2×) and -3.307 and -1.828 (2×) and -0.7002
hTA1 I290Y; M -11
  Normalized Luminescence Counts for Concentration Response Curves: -2.188 and -1.88 and -2.496 and -2.575 and -5.506 and -7.705 and -6.34 and -4.0841 and -5.212
hTA1 I290Y; M -11.522
  Normalized Luminescence Counts for Concentration Response Curves: -2.188 and -1.264 (2×) and -1.475 and -4.773 and -4.407 and -4.0841 (2×) and -2.956
hTA1 I290Y; M -12
  Normalized Luminescence Counts for Concentration Response Curves: -3.111 and -2.496 and -2.188 and -5.873 and -5.14 and -2.941 and -1.828 and -2.956 and -4.0841
hTA1 I290Y; M -12.522
  Normalized Luminescence Counts for Concentration Response Curves: -3.7267
hTA1 I290Y; I290Y, Mean of one experiment
  Emax values of Asenapine: 56.131 and 42.2396
hTA1 I290Y; I290Y, Mean of one experiment, read-out: Emax values of Asenapine
  Emax: 54.9%
hTA1 I290Y; I290Y, Mean of one experiment, read-out: pEC50 values of Asenapine (converted)
  EC50: 252 nM and 215 nM and 383 nM
hTA1 I290Y; I290Y, read-out: EC50
  EC50: 275 nM
hTA1 I290Y; I290Y, read-out: Span ± SEM (Emax normalized to β-PEA)
  Emax: 51.1 ± 4.43%
hTA1 I290Y; I290Y, relative to β-PEA, read-out: Emax
  Emax: 51.1%
hTA1 I290Y; hTA1 I290Y mutant vs WT average, Figure 6B, each line is one experiment (3 replicates)
  ΔEmax values (each mutant value - WT average), I290Y, Mean: -33.855 and -32.5762 and -46.4677
hTA1 R83H; Asenapine
  ΔpEC50 values (each mutant value - WT average), Mean: -1.278 and -1.426
hTA1 R83H; Asenapine, per experiment, 3 replicates
  Emax values, Mean: 22.9611 and 11.3307
hTA1 R83H; Asenapine, per experiment, 3 replicates, read-out: pEC50 values Mean (converted)
  EC50: 1640 nM and 2310 nM
hTA1 R83H; n=2, read-out: EC50
  EC50: 1950 nM
hTA1 R83H; n=2, read-out: Span ± SEM (Emax normalized to β-PEA)
  Emax: 17.1 ± 5.82%
hTA1 T194A; EC50, T194A
  EC50: 540 nM
hTA1 T194A; T194A, Mean of one experiment
  Emax values of Asenapine: 80.8072
hTA1 T194A; hTA1 T194A mutant vs WT average, Figure 6B, each line is one experiment (3 replicates)
  ΔEmax values (each mutant value - WT average), T194A, Mean: 2.977 and -7.9001
hTA1 T194A; pEC50 values of Asenapine, T194A, Mean of one experiment
  EC50: 383 nM and 477 nM
hTA1 T194A; pEC50 ± SEM, T194A
  EC50: 457 nM
hTA1 T194A; read-out: Emax values of Asenapine, T194A, Mean of one experiment
  Emax: 91.7%
hTA1 T194A; read-out: Span ± SEM (Emax normalized to β-PEA), T194A
  Emax: 120%
hTA1; WT, Avg of the experiment means, read-out: Emax values, Avg
  Emax: 88.7%
hTA1; WT, Mean of one experiment (3 replicates), read-out: Emax values
  Emax: 91%
hTA1; wt hTA1, relative to β-PEA, read-out: Emax
  Emax: 88.7%
hTA1; WT, Asenapine, average of the two experiments
  Emax values, Avg: 88.71
hTA1; WT, Asenapine, mean of one experiment, 3 replicates
  Emax values, Mean: 91.0389 and 86.3756
hTA1; WT, Mean of one experiment (3 replicates)
  Emax values: 86.3756
hTA1; WT, Mean of one experiment (3 replicates), read-out: pEC50 values (converted)
  EC50: 279 nM
hTA1; M = -5
  Dose-response curves for asenapine vs endogenous trace amines: 79.6771 and 96.2124 and 92.251 and 83.6538 and 87.8328 and 80.7895
  Normalized Luminescence Counts for WT hTA1: 83.6538 and 87.8328 and 80.7895 and 79.6771 and 96.2124 and 92.251
hTA1; M = -5.522
  Dose-response curves for asenapine vs endogenous trace amines: 74.87 and 93.5418 and 84.1725 and 79.0052 and 76.9861 and 71.9618
  Normalized Luminescence Counts for WT hTA1: 79.0052 and 76.9861 and 71.9618 and 74.87 and 93.5418 and 84.1725
hTA1; M = -6
  Dose-response curves for asenapine vs endogenous trace amines: 68.5274 and 68.3939 and 69.9517 and 72.9948 and 71.8209 and 62.9463
  Normalized Luminescence Counts for WT hTA1: 72.9948 and 71.8209 and 62.9463 and 68.5274 and 68.3939 and 69.9517
hTA1; M = -6.522
  Dose-response curves for asenapine vs endogenous trace amines: 47.5189 and 49.5663 and 40.1525 and 38.2946 and 48.7657 and 45.4788
  Normalized Luminescence Counts for WT hTA1: 38.2946 and 48.7657 and 45.4788 and 47.5189 and 49.5663 and 40.1525
hTA1; M = -7
  Dose-response curves for asenapine vs endogenous trace amines: 27.8234 and 34.8114 and 20.9244 and 18.9489 and 23.9262 and 21.7193
  Normalized Luminescence Counts for WT hTA1: 18.9489 and 23.9262 and 21.7193 and 27.8234 and 34.8114 and 20.9244
hTA1; M = -7.522
  Dose-response curves for asenapine vs endogenous trace amines: 9.085 and 11.3326 and 6.214 and 4.299 and 6.271 and 7.5856
  Normalized Luminescence Counts for WT hTA1: 4.299 and 6.271 and 7.5856 and 9.085 and 11.3326 and 6.214
hTA1; M = -8
  Dose-response curves for asenapine vs endogenous trace amines: 5.413 and 6.147 and 6.2585 and 3.876 and 4.862 and 2.139
  Normalized Luminescence Counts for WT hTA1: 3.876 and 4.862 and 2.139 and 5.413 and 6.147 and 6.2585
hTA1; M = -8.522
  Dose-response curves for asenapine vs endogenous trace amines: 0.6725 and 1.273 and 1.229 and 1.059 and 0.777 and -0.209
  Normalized Luminescence Counts for WT hTA1: 1.059 and 0.777 and -0.209 and 0.6725 and 1.273 and 1.229
hTA1; M = -9
  Dose-response curves for asenapine vs endogenous trace amines: -0.2399 and 0.5835 and -0.9298 and -0.4438 and -0.06817 and 0.0727
  Normalized Luminescence Counts for WT hTA1: -0.4438 and -0.06817 and 0.0727 and -0.2399 and 0.5835 and -0.9298
hTA1; M = -9.522
  Dose-response curves for asenapine vs endogenous trace amines: -1.597 and -0.5292 and -1.353 and -0.209 and -0.5377 and 0.777
  Normalized Luminescence Counts for WT hTA1: -0.209 and -0.5377 and 0.777 and -1.597 and -0.5292 and -1.353
hTA1; M = -10
  Dose-response curves for asenapine vs endogenous trace amines: -0.6182 and -0.1064 and -0.8408 and -0.7725 and -0.5377 and -0.6786
  Normalized Luminescence Counts for WT hTA1: -0.7725 and -0.5377 and -0.6786 and -0.6182 and -0.1064 and -0.8408
hTA1; M = -10.522
  Dose-response curves for asenapine vs endogenous trace amines: -0.9521 and -0.1509 and -1.197 and -0.8195 and -1.665 and -1.101
  Normalized Luminescence Counts for WT hTA1: -0.8195 and -1.665 and -1.101 and -0.9521 and -0.1509 and -1.197
hTA1; M = -11
  Dose-response curves for asenapine vs endogenous trace amines: -0.9075 and -0.3289 and -0.7295 and -0.3969 and 0.2136 and 0.9649
  Normalized Luminescence Counts for WT hTA1: -0.3969 and 0.2136 and 0.9649 and -0.9075 and -0.3289 and -0.7295
hTA1; M = -11.522
  Dose-response curves for asenapine vs endogenous trace amines: -0.863 and -0.01735 and -1.531 and -0.9603 and -0.5377 and -0.4908
  Normalized Luminescence Counts for WT hTA1: -0.9603 and -0.5377 and -0.4908 and -0.863 and -0.01735 and -1.531
hTA1; M = -12
  Dose-response curves for asenapine vs endogenous trace amines: -1.108 and -0.6405 and -1.286 and -1.101 and -0.6786 and -1.477
  Normalized Luminescence Counts for WT hTA1: -1.101 and -0.6786 and -1.477 and -1.108 and -0.6405 and -1.286
hTA1; M = -12.522
  Dose-response curves for asenapine vs endogenous trace amines: -1.575 and -1.241 and -2.02 and -0.5377 and -1.054 and -1.242
  Normalized Luminescence Counts for WT hTA1: -0.5377 and -1.054 and -1.242 and -1.575 and -1.241 and -2.02
hTA1; wt hTA1, HEK293T, n=3, read-out: EC50
  EC50: 274 nM
